Measurements: PubChem BioAssay AID1549 (Sanford-Burnham Center for Chemical Genomics, 2009)
Activity calls are given as the source filed them. No rule for the calls is given here.

Target: Influenza A virus M2 proton channel (A/TW/4845/1999 H1N1)
Test: M2 proton channel binding, NMR based, influenza A virus H1N1 strain (AID 1549)
Conditions: NMR binding screen, M2 protein

| SMILES | Kd |
| --- | --- |
| NCCc1ccc(S(N)(=O)=O)cc1 | > 4 mM (inactive) |
| O=C(O)c1[nH]nc2c1COc1ccccc1-2 | > 4 mM (inactive) |
| Cc1nc(-c2ccccc2)sc1CN | > 4 mM (inactive) |
| C[C@@H]1O[C@@H](O[C@H]2C[C@@H](O)[C@]3(CO)C4C(CC[C@]3(O)C2)[C@@]2(O)CC[C@H](C3=CC(=O)OC3)[C@@]2(C)C[C@H]4O)[C@H](O)[C@H](O)[C@H]1O (stereo partly specified) | > 4 mM (inactive) |
| O=c1ccc2cc(O[C@@H]3O[C@H](CO)[C@@H](O)[C@H](O)[C@H]3O)c(O)cc2o1 | > 4 mM (inactive) |
| Cc1cc(C)nc(N(C#N)Cc2ccccc2)n1 | > 4 mM (inactive) |
| CCCn1c(S(=O)(=O)O)nc2ccccc21 | > 4 mM (inactive) |
| O=C1CCCc2c1nc(-c1ccccc1)n2O | > 4 mM (inactive) |
| C/C=C(\C)C(=O)O[C@@H]1c2c(ccc3ccc(=O)oc23)OC(C)(C)[C@@H]1OC(C)=O | > 4 mM (inactive) |
| Cc1cc(=O)n2ccc(CN3CCOCC3)c(O)c2n1 | > 4 mM (inactive) |
| CSc1nc(-c2ccccc2)ccc1C(N)=O | > 4 mM (inactive) |
| O=C(NCCCSc1ncccn1)Nc1ncccn1 | > 4 mM (inactive) |
| Cc1cc(C)nc(/N=C(\N)N2CCc3ccccc32)n1 | > 4 mM (inactive) |
| O=C1NC(=O)C2C3C=CC(O3)C12 (stereo unspecified) | > 4 mM (inactive) |
| CN1C(=O)c2ccc(N=C3NC(=O)CS3)cc2C1=O | > 4 mM (inactive) |
| CC1CCN(S(=O)(=O)N(C)C)CC1 | > 4 mM (inactive) |
| CCOC(=O)c1csc(C2COc3ccccc3O2)n1 (stereo unspecified) | > 4 mM (inactive) |
| O=C(NCc1ccccc1Br)c1ccco1 | > 4 mM (inactive) |
| O=C(Nn1cnnc1)c1ccccc1Cl | > 4 mM (inactive) |
| NCc1cc2ccccc2s1 | > 4 mM (inactive) |
| O=C1c2ccccc2C(=O)c2c1ccc(O)c2O | > 4 mM (inactive) |
| O[C@H]1C=C2CCN3Cc4cc5c(cc4C(C23)[C@@H]1O)OCO5 (stereo partly specified) | > 4 mM (inactive) |
| N#CC(O[C@@H]1O[C@H](CO[C@@H]2O[C@H](CO)[C@@H](O)[C@H](O)[C@H]2O)[C@@H](O)[C@H](O)[C@H]1O)c1ccccc1 (stereo partly specified) | > 4 mM (inactive) |
| Cc1ccccc1NC(=O)c1ocnc1C | > 4 mM (inactive) |

| SMILES | Kd |
| --- | --- |
| C=C[C@H]1CN2CC[C@H]1C[C@@H]2[C@@H](O)c1ccnc2ccc(OC)cc12 | > 4 mM (inactive) |
| CCOC(=O)CC1Sc2ccccc2NC1=O (stereo unspecified) | > 4 mM (inactive) |
| Nc1nnc(COc2cccc(C(F)(F)F)c2)s1 | > 4 mM (inactive) |
| O=c1/c(=C\c2cccnc2)sc2nc3ccccc3n12 | > 4 mM (inactive) |
| O=C1c2ccccc2-c2ncnc3cccc1c23 | > 4 mM (inactive) |
| OCc1ccc2nonc2c1 | > 4 mM (inactive) |
| O=C1N/C(=N\c2ccccn2)SC1Cc1ccccc1 (stereo unspecified) | > 4 mM (inactive) |
| COc1cc(OC)c2c(=O)c(O)c(-c3ccc(OC)c(OC)c3)oc2c1 | > 4 mM (inactive) |
| O=C(COc1ccccc1O)NCCO | > 4 mM (inactive) |
| Cc1sc2nc(SCC(=O)N(C)C)[nH]c(=O)c2c1C | > 4 mM (inactive) |
| Cc1nnc(Nc2cccnc2)[nH]c1=O | > 4 mM (inactive) |
| CC(C)=CC1C(C(=O)O)C1(C)C (stereo unspecified) | > 4 mM (inactive) |
| O=C(O)c1ccccc1C(=O)NCC1CCCO1 (stereo unspecified) | > 4 mM (inactive) |
| S=C(Nc1ccccc1)Nc1nncs1 | > 4 mM (inactive) |
| CC(=O)c1cnc(Nc2nc(C)c3ccccc3n2)nc1C | > 4 mM (inactive) |
| CC(=O)CC1(O)C(=O)Nc2ccc(Br)cc21 (stereo unspecified) | > 4 mM (inactive) |
| Cc1ccc(CO)o1 | > 4 mM (inactive) |
| CC(=O)N1CCN(c2ccc(N)cc2)CC1 | > 4 mM (inactive) |
| Cc1cc(C(=O)NC(C)c2ccncc2)no1 (stereo unspecified) | > 4 mM (inactive) |
| O=C1NC(=O)C(Cc2cccs2)C(=O)N1 | > 4 mM (inactive) |
| COc1ccc(-c2ccc(SCC(N)=O)nn2)cc1 | > 4 mM (inactive) |
| Oc1ccccc1C(=S)N1CCCCCC1 | > 4 mM (inactive) |
| C[C@]12CCC3C(CC[C@H]4C[C@@H](O)CC[C@]34C)C1CCC2=O (stereo partly specified) | > 4 mM (inactive) |
| COc1ccccc1NC(=O)c1snnc1C | > 4 mM (inactive) |

| SMILES | Kd |
| --- | --- |
| Nc1nc2ccccc2n1CCN1CCCC1 | > 4 mM (inactive) |
| NC(=O)CN=Cc1c(O)[nH]c2ccccc12 | > 4 mM (inactive) |
| CC(=O)Oc1ccc2c(c1C(C)C)CCC1C(C)(C)CCC[C@]21C (stereo partly specified) | > 4 mM (inactive) |
| COc1cc(C(=S)N2CCCC2)cc(Cl)c1O | > 4 mM (inactive) |
| Cc1ccccc1-n1c(-c2cccnc2)n[nH]c1=S | > 4 mM (inactive) |
| Cc1csc(CCc2nc(C)cs2)n1 | > 4 mM (inactive) |
| CCC(C)C(=O)O[C@H]1[C@H](O)C2C(CN3CC(C)CCC3[C@@]2(C)O)C2C[C@]34O[C@]5(O)C(OC(=O)C(C)(O)C(C)O)CC[C@@]3(C)C5C(OC(C)=O)[C@@H](OC(C)=O)C4[C@@]21O (stereo partly specified) | > 4 mM (inactive) |
| O=c1[nH]cc(S(=O)(=O)Nc2ccccc2)c(=O)[nH]1 | > 4 mM (inactive) |
| COc1ccc2c(=O)c(CC(=O)O)coc2c1 | > 4 mM (inactive) |
| O=c1c(O)cc([C@H]2Oc3cc(O)cc(O)c3C[C@H]2O)cc2c([C@H]3Oc4cc(O)cc(O)c4C[C@H]3O)cc(O)c(O)c12 | > 4 mM (inactive) |
| c1csc(-c2nnc3ccccn23)c1 | > 4 mM (inactive) |
| CN1C(=O)C2CC=C(Cl)CC2C1=O (stereo unspecified) | > 4 mM (inactive) |
| Cc1ccc(N2C(=O)CCC2=O)cc1 | > 4 mM (inactive) |
| Cc1ccc(C(=O)Nc2c[nH]c(=O)[nH]c2=O)cc1 | > 4 mM (inactive) |
| COC(=O)[C@]1(C)CC[C@]2(C)CC[C@]3(C)C4=CC=C5C(=CC(=O)C(O)=C5C)[C@]4(C)CC[C@@]3(C)[C@@H]2C1 | > 4 mM (inactive) |
| OCCNC(=S)Nc1ccc(F)cc1 | > 4 mM (inactive) |
| NC(=O)c1ccc(-c2ccccn2)s1 | > 4 mM (inactive) |
| CSc1nc(C)cc(Oc2ccc(=O)n(C)n2)n1 | > 4 mM (inactive) |
| CNC(=O)C(=O)NCc1ccc(C)cc1 | > 4 mM (inactive) |
| CCOC(=O)c1nc2ccccc2c(=O)n1N | > 4 mM (inactive) |
| COc1cc2c(cc1OC)C(=O)OC2 | > 4 mM (inactive) |
| CC(=O)Nc1ccc(C(=O)n2nc(C)cc2C)cc1 | > 4 mM (inactive) |
| CS(=O)(=O)Nc1cc2c3c(c1)CCN3C(=O)CC2 | > 4 mM (inactive) |
| O=C1c2cccnc2C(=O)N1Cc1ccco1 | > 4 mM (inactive) |

| SMILES | Kd |
| --- | --- |
| NC(=O)Cn1cnc2ccccc21 | > 4 mM (inactive) |
| CC(=O)Oc1ccc(/C=C/c2cc(OC(C)=O)cc(OC(C)=O)c2)cc1 | > 4 mM (inactive) |
| O=C1NC(=S)S/C1=C/c1ccncc1 | > 4 mM (inactive) |
| COc1ccc2nc(N)sc2c1 | > 4 mM (inactive) |
| O=C(O)C1CN(Cc2ccccc2)CCO1 (stereo unspecified) | > 4 mM (inactive) |
| Cc1ccc(C(=O)CS(C)(=O)=O)cc1 | > 4 mM (inactive) |
| CSc1nnc2c(n1)OC=Nc1ccccc1-2 | > 4 mM (inactive) |
| CC(=O)Nc1ccc(NC(=O)C2CC2)cc1 | > 4 mM (inactive) |
| NC1CSCC1O (stereo unspecified) | > 4 mM (inactive) |
| OCc1ccc(N2CCOCC2)nc1 | > 4 mM (inactive) |
| COc1cccc(-c2nn(-c3ccccc3)cc2CO)c1 | > 4 mM (inactive) |
| CN1CCOc2cc(C(=O)O)ccc21 | > 4 mM (inactive) |
| Cn1c2ccccc2n2c(=S)[nH]nc12 | > 4 mM (inactive) |
| Cc1nc(SCC#N)c2c3c(sc2n1)CCC3 | > 4 mM (inactive) |
| O=C1CC(=O)N(c2cccc(Cl)c2)N1 | > 4 mM (inactive) |
| O=C1CN(C(=O)CN2CCOCC2)c2ccccc2N1 | > 4 mM (inactive) |
| O=C(O)CSc1nnc(-c2cccs2)o1 | > 4 mM (inactive) |
| CNC(=S)Nc1cccc(C(=O)O)c1 | > 4 mM (inactive) |
| Cc1ccc(CNc2ccc(O)cc2)cc1 | > 4 mM (inactive) |
| COc1ccc2c(c1)C(NC(C)=O)C(=O)N2C (stereo unspecified) | > 4 mM (inactive) |
| CCC(CCC(C)[C@H]1CCC2C3CC=C4C[C@@H](O)CC[C@]4(C)C3CC[C@@]21C)C(C)C (stereo partly specified) | > 4 mM (inactive) |
| Nc1ncnc2nc[nH]c12 | > 4 mM (inactive) |
| O=C1NC(=Nc2ccccc2)S/C1=C/c1cccnc1 | > 4 mM (inactive) |
| O=C1CN2C(=N1)N(Cc1ccccc1)c1ccccc12 | > 4 mM (inactive) |

| SMILES | Kd |
| --- | --- |
| COc1ccc(Cl)c(S(=O)(=O)N2CCCC2)c1 | > 4 mM (inactive) |
| O=C(Nc1ccncc1)c1c(F)cccc1F | > 4 mM (inactive) |
| NC12CC3CC(C1)CC(C(=O)O)(C3)C2 | > 4 mM (inactive) |
| Cc1nc2ccc(NC(=O)N3CCSCC3)cc2s1 | > 4 mM (inactive) |
| NC1=NC(=O)/C(=C/c2ccc(O)c(Cl)c2)S1 | > 4 mM (inactive) |
| COc1cc([C@@H]2c3cc4c(cc3[C@H](O)[C@H]3COC(=O)[C@@H]23)OCO4)cc(OC)c1OC | > 4 mM (inactive) |
| O=C(c1cccc(-n2cnnn2)c1)N1CCOCC1 | > 4 mM (inactive) |
| COc1ncccc1N | > 4 mM (inactive) |
| Cc1cc(C)n2c(SCc3cccs3)nnc2n1 | > 4 mM (inactive) |
| Cc1cc(NC(=O)c2c(F)c(F)c(F)c(F)c2F)no1 | > 4 mM (inactive) |
| COC(=O)[C@H]1[C@H]2C[C@H]3c4[nH]c5ccccc5c4CCN3C[C@H]2CC[C@@H]1O | > 4 mM (inactive) |
| Cc1c(/C=N/O)cnn1C | > 4 mM (inactive) |
| CCOC(=O)c1cc(C)n(-n2cnnc2)c1C | > 4 mM (inactive) |
| COc1ccc(-c2coc3c(OC)c(OC)cc(O)c3c2=O)cc1 | > 4 mM (inactive) |
| COC(=O)c1c(C)cc(OC)cc1O | > 4 mM (inactive) |
| C=C1CCC2[C@](C)(CO)[C@H](O)CC[C@@]2(C)[C@@H]1C/C=C1/C(=O)OC[C@H]1O (stereo partly specified) | > 4 mM (inactive) |
| COC(=O)c1cccnc1Oc1ccccc1 | > 4 mM (inactive) |
| NC1=NN(c2ccccc2)C(=O)C1 | > 4 mM (inactive) |
| O=C(Nc1ccccc1C(F)(F)F)N1CCCCCC1 | > 4 mM (inactive) |
| O=C(/C=C/c1ccccc1)c1ccc(O[C@@H]2O[C@H](CO)[C@@H](O)[C@H](O)[C@H]2O)cc1O | > 4 mM (inactive) |
